In patent US20240391959A1, “BICYCLIC PEPTIDE LIGANDS […] FOR TRANSFERRIN RECEPTOR 1 (TfR1)” (BicycleTx Limited, priority 2020, published 2024):
Where two headings read alike, the source gives them in different places. Starred links: 1 amine or outer side, 2 acyl side, 3 side chain; linkers in the order of their positions; H or OH if unused. Positions of bridges follow the written chain, without caps; N, C: chain ends. Residues, ends and D or L forms follow the SMILES beside them. TATB = O=C(C[*:1])N1CN(C(=O)C[*:2])CN(C(=O)C[*:3])C1

How the values were obtained:
Format in all cases: binding
cynomolgus TfR1 = target: cynomolgus TfR1
human TfR1 [1] = target: T1, human TfR1 (Homo sapiens, UniProt P02786); experiment: biochemical; design: His6-tagged TfR1 (a.a. 89-760) (ACRO Biosystems, CD1-H5243 and TFR-C524a); His6; purchased R&D Systems or Acro Biosystems 2474-TR or CD1-H5243
human TfR1 [2] = target: T1, human TfR1; experiment: biochemical; design: His6-tagged TfR1 (a.a. 89-760) (ACRO Biosystems, CD1-H5243 and TFR-C524a); His6; purchased R&D Systems or Acro Biosystems 2474-TR or CD1-H5243; remark: listed apart in the source

T1 sequence (P02786 89-760): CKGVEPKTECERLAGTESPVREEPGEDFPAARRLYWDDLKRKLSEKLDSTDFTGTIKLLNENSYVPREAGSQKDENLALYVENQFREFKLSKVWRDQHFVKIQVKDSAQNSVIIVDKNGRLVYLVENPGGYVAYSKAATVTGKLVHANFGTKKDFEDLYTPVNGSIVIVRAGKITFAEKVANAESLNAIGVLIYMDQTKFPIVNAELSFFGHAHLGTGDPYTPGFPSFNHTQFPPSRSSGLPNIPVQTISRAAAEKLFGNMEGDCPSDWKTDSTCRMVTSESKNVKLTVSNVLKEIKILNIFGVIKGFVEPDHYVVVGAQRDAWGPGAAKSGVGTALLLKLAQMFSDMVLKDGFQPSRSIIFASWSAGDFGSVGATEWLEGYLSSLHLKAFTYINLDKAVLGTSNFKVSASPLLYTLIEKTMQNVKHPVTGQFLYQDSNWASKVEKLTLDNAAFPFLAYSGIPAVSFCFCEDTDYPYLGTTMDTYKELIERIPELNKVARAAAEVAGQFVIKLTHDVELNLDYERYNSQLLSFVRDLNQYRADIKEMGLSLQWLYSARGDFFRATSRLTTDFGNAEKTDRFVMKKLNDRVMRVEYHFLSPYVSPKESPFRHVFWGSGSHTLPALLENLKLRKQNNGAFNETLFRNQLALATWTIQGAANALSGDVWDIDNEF

CC[C@H](C)[C@@H]1NC(=O)[C@@H]2CSCC(=O)N3CN(CN(C3)C(=O)CSC[C@H](NC(C)=O)C(=O)N[C@@H](CO)C(=O)N3CCC[C@H]3C(=O)N[C@@H](CC(=O)O)C(=O)N[C@@H](C)C(=O)N[C@@H](Cc3c[nH]cn3)C(=O)N[C@@H](CC(C)C)C(=O)NCC(=O)N2)C(=O)CSC[C@@H](C(N)=O)NC(=O)[C@H](Cc2ccc(O)cc2)NC(=O)[C@H](CO)NC1=O [BCY15891, Ac-(SEQ ID NO: 9)] (Ac-CSPDAHLGCISYC-NH2; linker 1-9-13 via TATB)
Kd (cynomolgus TfR1): 3990 nM | Ki (human TfR1 [1]; Geomean Ki (μM)): 0.067 µM | Ki (human TfR1 [1]; Human TfR1 Ki (nM)): 0.094 µM | Kd (human TfR1 [2]; Human TfR1 Kd (nM)): 46 nM

CC[C@H](C)[C@@H]1NC(=O)[C@@H]2CSCC(=O)N3CN(CN(C3)C(=O)CSC[C@@H](C(=O)N[C@@H](C)C(N)=O)NC(=O)[C@H](Cc3ccc4ccccc4c3)NC(=O)[C@H](CO)NC1=O)C(=O)CSC[C@H](NC(=O)[C@H](C)N)C(=O)N[C@@H](CO)C(=O)N1CCC[C@H]1C(=O)N[C@@H](CC(=O)O)C(=O)N[C@@H](C)C(=O)N[C@@H](Cc1c[nH]cn1)C(=O)N[C@@H](CC(C)C)C(=O)NCC(=O)N2 [BCY16031, A-(SEQ ID NO: 36)-A]
Kd (cynomolgus TfR1): 6480 nM | Ki (human TfR1 [1]; Geomean Ki (μM)): 0.119 µM | Kd (human TfR1 [2]; read-out: Human TfR1 Kd): 68 nM

CC[C@H](C)[C@@H]1NC(=O)[C@@H]2CSCC(=O)N3CN(CN(C3)C(=O)CSC[C@@H](C(=O)N[C@@H](C)C(N)=O)NC(=O)[C@H](Cc3ccncc3)NC(=O)[C@H](CO)NC1=O)C(=O)CSC[C@H](NC(=O)[C@H](C)N)C(=O)N[C@@H](CO)C(=O)N1CCC[C@H]1C(=O)N[C@@H](CC(=O)O)C(=O)N[C@@H](C)C(=O)N[C@@H](Cc1c[nH]cn1)C(=O)N[C@@H](CC(C)C)C(=O)NCC(=O)N2 [BCY16032, A-(SEQ ID NO: 48)-A]
Kd (cynomolgus TfR1): 30000 nM | Ki (human TfR1 [1]; Geomean Ki (μM)): 0.654 µM | Kd (human TfR1 [2]; Human TfR1 Kd (nM)): 305 nM

CC[C@H](C)[C@@H]1NC(=O)[C@@H]2CSCC(=O)N3CN(CN(C3)C(=O)CSC[C@@H](C(=O)N[C@@H](C)C(N)=O)NC(=O)[C@H](Cc3ccc(O)cc3)NC(=O)[C@H](CO)NC1=O)C(=O)CSC[C@H](NC(=O)[C@H](C)N)C(=O)N[C@@H](CO)C(=O)N1C[C@H](O)C[C@H]1C(=O)N[C@@H](CC(=O)O)C(=O)N[C@@H](C)C(=O)N[C@@H](Cc1c[nH]cn1)C(=O)N[C@@H](CC(C)C)C(=O)NCC(=O)N2 [BCY16047, A-(SEQ ID NO: 15)-A]
Kd (cynomolgus TfR1): 4830 nM | Ki (human TfR1 [1]; Geomean Ki (μM)): 0.133 µM | Ki (human TfR1 [1]; Human TfR1 Ki (nM)): 0.042 µM | Kd (human TfR1 [2]; read-out: Human TfR1 Kd): 49 nM

CC[C@H](C)[C@@H]1NC(=O)[C@@H]2CSCC(=O)N3CN(CN(C3)C(=O)CSC[C@@H](C(=O)N[C@@H](C)C(N)=O)NC(=O)[C@H](Cc3ccc(O)c(C(C)(C)C)c3)NC(=O)[C@H](CO)NC1=O)C(=O)CSC[C@H](NC(=O)[C@H](C)N)C(=O)N[C@@H](CO)C(=O)N1CCC[C@H]1C(=O)N[C@@H](CC(=O)O)C(=O)N[C@@H](C)C(=O)N[C@@H](Cc1c[nH]cn1)C(=O)N[C@@H](CC(C)C)C(=O)NCC(=O)N2 [BCY16079, A-(SEQ ID NO: 37)-A]
Kd (cynomolgus TfR1): 5660 nM | Kd (human TfR1 [2]; Human TfR1 Kd (nM)): 60 nM

CC[C@H](C)[C@@H]1NC(=O)[C@@H]2CSCC(=O)N3CN(CN(C3)C(=O)CSC[C@H](NC(=O)[C@H](CCSC)NC(=O)[C@H](Cc3c[nH]c4ccccc34)NC(=O)[C@@H](N)Cc3c[nH]cn3)C(=O)N[C@@H](CO)C(=O)N3CCC[C@H]3C(=O)N[C@@H](CC(=O)O)C(=O)N[C@@H](C)C(=O)N[C@@H](Cc3c[nH]cn3)C(=O)N[C@@H](CC(C)C)C(=O)NCC(=O)N2)C(=O)CSC[C@@H](C(=O)N[C@@H](C)C(N)=O)NC(=O)[C@H](Cc2ccc(O)cc2)NC(=O)[C@H](CO)NC1=O [BCY17110, HWM-(SEQ ID NO: 9)-A] (H-HWMCSPDAHLGCISYCA-NH2; linker 4-12-16 via TATB)
Kd (cynomolgus TfR1): 232 nM | Ki (human TfR1 [1]; Geomean Ki (μM)): 0.022 µM | Kd (human TfR1 [2]; Human TfR1 Kd (nM)): 15 nM

CC[C@H](C)[C@@H]1NC(=O)[C@@H]2CSCC(=O)N3CN(CN(C3)C(=O)CSC[C@H](NC(=O)[C@H](CO)NC(=O)[C@@H](NC(=O)[C@@H](N)Cc3c[nH]cn3)[C@@H](C)O)C(=O)N[C@@H](CO)C(=O)N3CCC[C@H]3C(=O)N[C@@H](CC(=O)O)C(=O)N[C@@H](C)C(=O)N[C@@H](Cc3c[nH]cn3)C(=O)N[C@@H](CC(C)C)C(=O)NCC(=O)N2)C(=O)CSC[C@@H](C(=O)N[C@@H](C)C(N)=O)NC(=O)[C@H](Cc2ccc(O)cc2)NC(=O)[C@H](CO)NC1=O [BCY17111, HTS-(SEQ ID NO: 9)-A] (H-HTSCSPDAHLGCISYCA-NH2; linker 4-12-16 via TATB)
Kd (cynomolgus TfR1): 907 nM | Ki (human TfR1 [1]; Geomean Ki (μM)): 0.086 µM | Kd (human TfR1 [2]; Human TfR1 Kd (nM)): 8.3 nM

CC[C@H](C)[C@@H]1NC(=O)[C@@H]2CSCC(=O)N3CN(CN(C3)C(=O)CSC[C@H](NC(=O)[C@H](Cc3ccccc3)NC(=O)[C@H](CO)NC(=O)[C@@H](N)CCC(=O)O)C(=O)N[C@@H](CO)C(=O)N3CCC[C@H]3C(=O)N[C@@H](CC(=O)O)C(=O)N[C@@H](C)C(=O)N[C@@H](Cc3c[nH]cn3)C(=O)N[C@@H](CC(C)C)C(=O)NCC(=O)N2)C(=O)CSC[C@@H](C(=O)N[C@@H](C)C(N)=O)NC(=O)[C@H](Cc2ccc(O)cc2)NC(=O)[C@H](CO)NC1=O [BCY17113, ESF-(SEQ ID NO: 9)-A] (H-ESFCSPDAHLGCISYCA-NH2; linker 4-12-16 via TATB)
Kd (cynomolgus TfR1): 1660 nM | Ki (human TfR1 [1]; Geomean Ki (μM)): 0.103 µM | Kd (human TfR1 [2]; Human TfR1 Kd (nM)): 308 nM

CC[C@H](C)[C@@H]1NC(=O)[C@@H]2CSCC(=O)N3CN(CN(C3)C(=O)CSC[C@@H](C(=O)N3CCC[C@H]3C(=O)N[C@@H](Cc3c[nH]cn3)C(=O)N3CCC[C@H]3C(N)=O)NC(=O)[C@H](Cc3ccc(O)cc3)NC(=O)[C@H](CO)NC1=O)C(=O)CSC[C@H](NC(=O)[C@H](C)N)C(=O)N[C@@H](CO)C(=O)N1CCC[C@H]1C(=O)N[C@@H](CC(=O)O)C(=O)N[C@@H](C)C(=O)N[C@@H](Cc1c[nH]cn1)C(=O)N[C@@H](CC(C)C)C(=O)NCC(=O)N2 [BCY17115, A-(SEQ ID NO: 9)-PHP] (H-ACSPDAHLGCISYCPHP-NH2; linker 2-10-14 via TATB; N-terminus and C-terminus assumed)
Kd (cynomolgus TfR1): 1240 nM | Ki (human TfR1 [1]; Geomean Ki (μM)): 0.03 µM | Ki (human TfR1 [1]; Human TfR1 Ki (nM)): 0.03 µM | Kd (human TfR1 [2]; Human TfR1 Kd (nM)): 60 nM

CC[C@H](C)[C@@H]1NC(=O)[C@@H]2CSCC(=O)N3CN(CN(C3)C(=O)CSC[C@H](NC(C)=O)C(=O)N[C@@H](CO)C(=O)N3CC[C@H]3C(=O)N[C@@H](CC(=O)O)C(=O)N[C@@H](C)C(=O)N[C@@H](Cc3c[nH]cn3)C(=O)N[C@@H](CC(C)C)C(=O)NCC(=O)N2)C(=O)CSC[C@@H](C(N)=O)NC(=O)[C@H](Cc2ccc(O)cc2)NC(=O)[C@H](CO)NC1=O [BCY17988, Ac-(SEQ ID NO: 44)]
Ki (human TfR1 [1]; Geomean Ki (μM)): 0.272 µM | Ki (human TfR1 [1]; Human TfR1 Ki (nM)): 0.213 µM | Kd (human TfR1 [2]; Human TfR1 Kd (nM)): 649 nM

CC[C@H](C)[C@@H]1NC(=O)[C@@H]2CSCC(=O)N3CN(CN(C3)C(=O)CSC[C@H](NC(=O)[C@H](CC(N)=O)NC(=O)[C@@H](Cc3c[nH]c4ccccc34)NC(=O)[C@H](CC(N)=O)NC(C)=O)C(=O)N[C@@H](CO)C(=O)N3CCC[C@H]3C(=O)N[C@@H](CC(=O)O)C(=O)N[C@@H](C)C(=O)N[C@@H](Cc3c[nH]cn3)C(=O)N[C@@H](CC(C)C)C(=O)NCC(=O)N2)C(=O)CSC[C@@H](C(N)=O)NC(=O)[C@H](Cc2ccc(O)cc2)NC(=O)[C@H](CO)NC1=O [BCY18035, Ac-N[dW]N-(SEQ ID NO: 9)]
Kd (cynomolgus TfR1): 10300 nM | Ki (human TfR1 [1]; Geomean Ki (μM)): 0.02 µM
